This note sets out measurements from a melting point compilation (Tetko et al.).

As usually defined, the melting point is the temperature of the solid-liquid transition. For `O=C(O)Cc1csc(NC(=O)c2cccs2)n1`, the melting point is 194 to 196 °C.

In turn, `COc1ccc(C)cc1NC(=O)C1CCCN1` (stereo not drawn) showed a melting point of 103 to 105 °C.

Compound `O=C(O)c1ccc(COc2ccc(Cl)cc2)cc1` gave a melting point of 201 to 203 °C.

With `O=c1[nH]ccc2ccn(Cc3ccccc3)c12`, the melting point was 177 to 179 °C.

Regarding `COc1ccc(C2CCCCC2=O)cc1F` (stereo not drawn), the melting point lay within 78 to 80 °C.

`COC(=O)c1cccc(OCC(F)(F)F)c1` gave a melting point of 56 to 58 °C.

Consider `COC(=O)c1ccc(-c2nc(C3CC3)no2)cc1`, for which the melting point lay in the range of 100 to 102 °C.

Consider `COC(=O)c1ccc(S(C)(=O)=O)cc1`, for which the melting point lay in the range of 116 to 118 °C.

Take `O=[N+]([O-])c1ccc(Br)c2c1CNCC2`: the melting point was 81 to 83 °C.

`CC(N)c1ccc(OCC(N)=O)cc1` (stereo not drawn): the melting point was 127 to 129 °C.

In turn, `Cn1c(Cl)cnc1CO` came in with a melting point of 110 to 112 °C.

For `O=C(O)CSc1nccn1-c1cccc(F)c1`, the melting point was 140 to 142 °C.

`Cc1ccc(-c2cc(C(=O)O)c3ccccc3n2)cc1` registered a melting point of 180 to 184 °C.

In turn, `NNc1ccc(C(F)(F)F)nn1` came in with a melting point of 132 to 134 °C.

On to `O=C(O)C(Br)C12CC3CC(CC(C3)C1)C2` (stereo not drawn), for which the melting point was in the range of 162 to 166 °C.

Regarding `CCCCc1ccc(NC(=S)NN)cc1`, the melting point was in the range of 125 to 127 °C.

For the compound `CCCn1cc(C(=O)O)c2ccccc21`, the melting point is 155 to 157 °C.

In turn, `CC(=O)c1ccc(S(=O)(=O)CC(=O)O)cc1F` came in with a melting point of 149 to 151 °C.

In turn, `Cc1cc(COc2ccc(C=O)cc2)oc1C(=O)O` displayed a melting point of 179 to 181 °C.

Regarding `COc1cc2c(c(OC)c1)C(=O)C(=O)N2`, the melting point was in the range of 289 to 291 °C.

`NS(=O)(=O)c1ccc2c(c1)NCC2` came in with a melting point of 164 to 166 °C.

Compound `COc1ccc(C)cc1NC(=O)c1cc2ccccc2cc1O` had a melting point of 178 to 180 °C.

Consider `C=CCn1c(C)cc(C(=O)CCl)c1C`, for which the melting point was 36 to 40 °C.

As for `O=C(c1ccc(F)cc1)N1CCNCC1`, the melting point fell in the range of 74 to 76 °C.

Compound `Oc1ccc(Sc2ccncc2)cc1` showed a melting point of 239 to 241 °C.

In turn, `Cc1csc(C(O)C(F)(F)F)n1` (stereo not drawn) yielded a melting point of 122 to 124 °C.

In turn, `S=C=Nc1cccc2ncccc12` displayed a melting point of 60 to 62 °C.

`Cc1nc2ccccc2c(=O)n1CC(=O)O` came in with a melting point of 239 to 241 °C.

Compound `O=Cc1cccc(OC(F)(F)C(=O)O)c1` yielded a melting point of 64 to 66 °C.

Turning to `O=C(O)c1cc2ccccc2n1Cc1ccccc1`, the melting point lay in the range of 197 to 199 °C.

Regarding `O=C1NCCSC1Cc1ccccc1` (stereo not drawn), the melting point was in the range of 107 to 109 °C.

For `Cc1nc(COc2ccc(C=O)cc2)no1`, the melting point was in the range of 57 to 59 °C.

Regarding `NC(=O)NCCc1cccnc1`, the melting point lay within 152 to 154 °C.

In the case of `CCOC(=O)c1cnc2c(C)cc(Br)cc2c1Cl`, the melting point was in the range of 101 to 103 °C.

The compound `CCS(=O)(=O)Nc1ccc(S(=O)(=O)Cl)c(C)c1` came in with a melting point of 82 to 84 °C.

The compound `C=CCc1cc(C(=O)O)cc(OC)c1OC` returned a melting point of 124 to 126 °C.

The compound `NNC(=O)NCC1CCCO1` (stereo not drawn) displayed a melting point of 79 to 81 °C.

For `N#Cc1ccc(-c2nnc(CCl)o2)cc1`, the melting point lay in the range of 143 to 145 °C.

`CS(=O)(=O)c1nc2cc(Br)cnc2[nH]1` gave a melting point of 222 to 224 °C.

Compound `Nc1cc(Cl)ccc1N1CCC(CO)CC1` had a melting point of 144 to 146 °C.

As for `CC(C)(C)OC(=O)CC(C)(C#N)C(=O)O` (stereo not drawn), the melting point lay within 89 to 91 °C.

`CC(C)c1oc(-c2ccccc2)nc1C(=O)O` came in with a melting point of 153 to 155 °C.

Turning to `Cc1ccc(-n2nnc(C(=O)O)c2C)cc1`, the melting point is 184 to 186 °C.

Take `CC(C)c1nc(C(=O)O)nn1-c1cccc(F)c1`: the melting point fell in the range of 93 to 95 °C.

As to `Nc1cc(Br)cc(Cl)c1O`, the melting point lay in the range of 79 to 81 °C.

Regarding `CNCc1cccc(O)c1`, the melting point was 144 to 146 °C.

`Cc1cccnc1NC(=O)C1CCCNC1` (stereo not drawn) registered a melting point of 123 to 125 °C.

`COC(=O)c1ccc(OC)cc1N` registered a melting point of 76 to 78 °C.
